From the supplement of paper PMC4862054

Experiments:
Conditions in all cases: incubation time: 72 h
Hs578T = assay: drug sensitivity score (DSS), CellTiter-Blue viability (DSS (AUC-based score)); higher = stronger viability inhibition; extreme values may be limits of the assay
Procedure: (§1)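 DSRT with the CellTiter-Blue (resazurin reduction) viability readout, fluorescence 560/590 nm, 72 h incubation. Plates were normalised to DMSO and benzethonium chloride controls. DSS is computed from the area under the fitted dose-response curve (5 or 9 concentrations).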

MDA-MB-231 = assay: as above
Procedure: as §1

HCC1937 [1] = assay: as above
Procedure: as §1

MFM-223 [2] = assay: as above
Procedure: as §1

HCC1143 = assay: as above
Procedure: as §1

MDA-MB-453 = assay: as above
Procedure: as §1

MDA-MB-468 = assay: as above
Procedure: as §1

MDA-MB-436 [3] = assay: as above
Procedure: as §1

CAL-85-1 [4] = assay: as above
Procedure: as §1

CAL-148 = assay: as above
Procedure: as §1

CAL-51 [5] = assay: as above
Procedure: as §1

SK-BR-3 = assay: as above
Procedure: as §1

DU-4475 = assay: as above
Procedure: as §1

HDQ-P1 = assay: as above
Procedure: as §1

CAL-120 = assay: as above
Procedure: as §1

HCC1599 [6] = assay: as above
Procedure: as §1

BT-549 = assay: as above
Procedure: as §1

BT-474 = assay: as above
Procedure: as §1

HCC1937 [7] = assay: drug sensitivity score (DSS), CellTiter-Glo (DSS (AUC-based score)); higher = stronger drug effect (viability inhibition or cytotoxicity); extreme values may be limits of the assay
How it was run: (§2)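 A drug sensitivity score was derived from the area under each fitted dose-response curve. Breast cancer cells (20 µl suspension) were seeded onto compound in 384-well plates, using 5 concentrations 10-fold apart over a compound-specific 10,000-fold range, and incubated 72 h. Readouts were CellTox Green fluorescence and then CellTiter-Glo luminescence, with every plate normalised to 0.1 % DMSO and a positive kill control.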

MFM-223 [8] = assay: as above
How it was run: as §2

MDA-MB-436 [9] = assay: as above
How it was run: as §2

CAL-85-1 [10] = assay: as above
How it was run: as §2

CAL-51 [11] = assay: as above
How it was run: as §2

HCC1599 [12] = assay: as above
How it was run: as §2

Structure (SMILES)	drug sensitivity score (Hs578T)	drug sensitivity score (MDA-MB-231)	drug sensitivity score (HCC1937 [1])	drug sensitivity score (MFM-223 [2])	drug sensitivity score (HCC1143)	drug sensitivity score (MDA-MB-453)	drug sensitivity score (MDA-MB-468)	drug sensitivity score (MDA-MB-436 [3])	drug sensitivity score (CAL-85-1 [4])	drug sensitivity score (CAL-148)	drug sensitivity score (CAL-51 [5])	drug sensitivity score (SK-BR-3)	drug sensitivity score (DU-4475)	drug sensitivity score (HDQ-P1)	drug sensitivity score (CAL-120)	drug sensitivity score (HCC1599 [6])	drug sensitivity score (BT-549)	drug sensitivity score (BT-474)	drug sensitivity score (HCC1937 [7])	drug sensitivity score (MFM-223 [8])	drug sensitivity score (MDA-MB-436 [9])	drug sensitivity score (CAL-85-1 [10])	drug sensitivity score (CAL-51 [11])	drug sensitivity score (HCC1599 [12])
Cc1c(N)nc([C@H](CC(N)=O)NC[C@H](N)C(N)=O)nc1C(=O)N[C@H](C(=O)N[C@H](C)[C@@H](O)[C@H](C)C(=O)N[C@H](C(=O)NCCc1nc(-c2nc(C(=O)NCCC[S+](C)C)cs2)cs1)[C@@H](C)O)[C@@H](OC1OC(CO)C(O)C(O)C1OC1OC(CO)C(O)C(OC(N)=O)C1O)c1cnc[nH]1 (stereo partly drawn) [Bleomycin]	11.3	6.41	9.75	0	9.95	0	0	4.58	0	0	0.892	0	0	0	3.15	0	13.6	0	2.76	0	4.49	0	16.1	0
Cc1cc2c(F)c(Oc3ncnn4cc(OC[C@@H](C)O)c(C)c34)ccc2[nH]1 [Brivanib]	0	0	0	0	0	0	0	0	0	0	0	0	0	0	0	0	0	0	0	0	0	0	1.49	0
CCCCCOC(=O)Nc1nc(=O)n([C@@H]2O[C@H](C)[C@@H](O)[C@H]2O)cc1F [Capecitabine]	0	0	0	0	0		0	0	0	0	0		0	0	0	0	0	0	0	0	0.812	0	0	0
CC(C)C[C@H](NC(=O)[C@H](CCc1ccccc1)NC(=O)CN1CCOCC1)C(=O)N[C@@H](Cc1ccccc1)C(=O)N[C@@H](CC(C)C)C(=O)[C@@]1(C)CO1 [Carfilzomib]	27.6	25.5	27	26.4	20.4	27.8	26.8	20.5	22.2	18.8	19.6	23.7	22.8	23.7	23.9	7.66	29.2	16.1	20.6	28.1	26.5	25.2	22.1	10.9
Nc1nc(Cl)nc2c1ncn2[C@@H]1O[C@H](CO)[C@@H](O)[C@@H]1F [Clofarabine]	7.51	12	15.5	0	9.25	9.02	12.5	11.8	10.1	11.3	11.1	15.3	13.3	0	11.6	2.01	10.6	0	0	0	16	10.6	17.6	9.47
CCN(CC)CCOc1ccc(C(=C(Cl)c2ccccc2)c2ccccc2)cc1 [Clomifene]	0	5.53	1.23	2.02	0	3.38	4.91	2.07	1.08	0	0	0	1.29	1.07	3.83	0	3.64	2.94	5.68	2.2	0	3.91	0	6.16
C[C@@H]1C[C@H]2[C@@H]3CCC4=CC(=O)C=C[C@]4(C)[C@@]3(F)[C@@H](O)C[C@]2(C)[C@@]1(O)C(=O)CO [Dexamethasone]	0	0	0	0	0	7.98	0	0	0	0	0	0	0	0	0	0	0	0	0	0	0	0	0	0
CC(C)C(=O)Nc1ccc([N+](=O)[O-])c(C(F)(F)F)c1 [Flutamide]	0	0	0	0	0	0	0	0	0	0	0	0	0	0	0	0	0	0	0	0	0	0	0.0535	0
COc1cc2c(Oc3ccc(NC(=O)C4(C(=O)Nc5ccc(F)cc5)CC4)cc3F)ccnc2cc1OCCCN1CCOCC1 [Foretinib]	0.649	0	0	9.7	0	0	0	3.35	0	2.11	4.07	0.269	1.75	4.98	1.14	0	0	0	0	6.22	0.456	0	1.01	0
NC(=O)NO [Hydroxyurea]	0	0	2.94	0	0	0	0	0	0	0	0	0	0	0	0	0	0	0	0	0	0	0	16.2	0
O=NN(CCCl)C(=O)NC1CCCCC1 [Lomustine]	0	0	0	0	0	0	0	0	0	0	0	0	0	0	0	0	0	0	0	0	0	0	0	0
O=C(O)CC[C@H]1CC[C@@](c2cc(F)ccc2F)(S(=O)(=O)c2ccc(Cl)cc2)CC1 [MK-0752]	0	0	0	0	0	0	0	0	0	0	0	0	0	0	0	2.93	0	0	0	0	0	0	0	0
NC1(c2ccc(-c3nc4ccn5c(=O)[nH]nc5c4cc3-c3ccccc3)cc2)CCC1 [MK-2206]	0	0	0	4.16	0	4.04	2.36	2.37	0	1.65	1.04	6.38	0	0	0	0	0	3.69	0	1.78	0	0	0	0
Cc1c(C(=O)Nc2ccc(N3C[C@@H](C)O[C@@H](C)C3)nc2)cccc1-c1ccc(OC(F)(F)F)cc1 [NVP-LDE225]	0	0	0	0	0	0	0	0	0	0	0	0	0	0	0	0	0	0						
